From patent US20090076278A1, “METHINE DYES AND USES OF THE SAME” (KABUSHIKI KAISHA HAYASHIBARA SEIBUTSU KAGAKU KENKYUJO, priority 2006, published 2009)

How the values were obtained:
Format in all cases: physicochemical
[1] = Light tolerance of dye thin membrane under xenon lamp exposure; details: thin membrane on glass substrate; 7.5 kw xenon lamp, two hours, 180 W/m^2; transmittance at absorption maximum wavelength (about 550 nm)
Method: Any one of the methine dyes represented by Chemical Formulae 1 to 3, 8 and 36, obtained by the methods in Examples 4 to 8, was weighed by 15 mg, added to three milliliters of TFP, and dissolved by energizing with ultra sound for five minutes at ambient temperature. The resulting solution was dropped to homogeneity over either side of a polished glass substrate (5 cm×5 cm) by spin coating, and the substrate was rotated at 1,000 rμm for one minute to homogeneously apply the solution over the substrate, and dried by successively blowing hot air and cool air thereunto in this order to form a thin membrane of any one of the methine dyes of the present invention over the glass substrate.
The transmittance (T0) of the methine dyes in the form of a thin layer was measured at their absorption maximum wavelengths (about 550 nm), and a 7.5 kw xenon lamp was installed apart from the glass substrate at a prescribed distance to expose the glass substrate for two hours with an irradiation energy of 180 W/m^2 when measured on the surface of the substrate while blowing cool air thereunto. Thereafter, the transmittance (T) at each of their absorption maximum wavelengths was instantly remeasured, and the residual percentage (%) of each dye was calculated by substituting the measured transmittances T and To Formula 1. In parallel, the thin membranes formed with the related compounds represented by Chemical Formulae 65 to 68 were similarly treated as in the above and respectively measured for their transmittances at their absorption maximum wavelengths.

[2] = Solubility of methine dye in TFP; details: for Solubility: dissolved in 100 ml of TFP at 20° C.; for solubility in TFP (in words): 1.6% by weight in TFP for forming a recording layer
Method: For the methine dyes of the present invention as listed in Table 1, they were respectively dissolved in 100 ml of TFP at 20° C. and, as solubility, measured for the mass of each methine dye. In parallel, conventionally known related compounds represented by Chemical Formulae 65 to 67 were similarly measured for their solubilities.

[3] = DSC analysis for decomposition point (thermal property); details: DSC analysis of crystal
From the text: As described above, the methine dyes of the present invention have main absorption maxima in the region at wavelengths of longer than 300 nm, usually, at wavelengths of around 350 to 850 nm, and have distinctly high molecular absorption coefficients (may be abbreviated as “ε”) of 1.0×10^5 or more, usually, 1.5×10^5 or more at their absorption maxima, and efficiently absorb the light in such wavelength region. […] As is well known, it is said that the decomposition point and the glass transition point of an organic compound are recognized as important indexes of their thermal stability, i.e., compounds with higher decomposition points and glass transition points tend to have a higher thermal stability. Accordingly, the methine dyes of the present invention can be quite advantageously used as light-absorption materials which absorb the light in the ultra violet and the infrared regions to shield it, or use the light energy of the above regions in various fields of, for example, information recordings, solar energy generations, electric equipments, electric communications apparatuses, optical equipments, clothes, building/bedding/decorating products, health goods, and agricultural materials. The decomposition points of the methine dyes can be determined by conventional […] (abbreviated as “DSC” herein after).
Conventional measurement of the dye for visible absorption spectrum in methanol solution as an absorption property gave a main absorption maximum at a wavelength of about 544 nm (E=1.94×10^5). ^1H-NMR Analysis of the methine dye in dimethyl sulfoxide-d^6 solution gave a chemical shift δ (ppm, TMS) at peaks of 0.15 to 0.32 (2H, m, —CH2—), 0.65 to 0.82 (2H, m, —CH2—), (6H, t, CH3—), 1.23 (6H, t, CH3—), 1.62 (6H, s, CH3—), 1.80 (6H, s, CH3—), 1.87 (6H, s, CH3—), 1.85 to 2.07 (2H, m, —CH2—), 2.70 to 2.90 (2H, m, —CH2—), 3.95 to 4.20 (8H, m, —CH2—), 6.39 (2H, d, —CH═), 6.48 (2H, d, —CH═), 7.51 (2H, t, ArH), 7.59 (2H, t, ArH), 7.61 (2H, d, ArH), 7.66 (2H, t, ArH), 7.75 (2H, d, ArH), 7.78 (2H, t, ArH), 8.01 (4H, t, ArH), 8.13 (4H, t, ArH), 8.16 (2H, d, ArH), 8.24 (2H, d, ArH), and 8.32 (2H, t, —CH═).

With `CCN1C(=CC=CC2=[N+](CC)c3ccc4ccccc4c3C2(C)Cc2ccccc2)C(C)(Cc2ccccc2)c2c1ccc1ccccc21` (stereo not shown) [Chemical Formula 68, reference compound] the “Residual percentage (%) of dye” value [1] was 50%.

For `CCN1C(=CC=CC2=[N+](CC)c3ccc4ccccc4c3C2(C)C)C(C)(C)c2c1ccc1ccccc21` [Chemical Formula 65, reference compound], the “Residual percentage (%) of dye” value [1] was 73% and the Solubility [2] was 1.10 % by weight.

With `CCN1C(=CC=CC2=[N+](C)c3ccc4ccccc4c3C2(C)Cc2ccc(CC3(C)C(C=CC=C4N(CC)c5ccc6ccccc6c5C4(C)Cc4ccccc4)=[N+](C)c4ccc5ccccc5c43)cc2)C(C)(Cc2ccccc2)c2c1ccc1ccccc21.F[P-](F)(F)(F)(F)F.F[P-](F)(F)(F)(F)F` (stereo not shown) [Chemical Formula 36] the “Residual percentage (%) of dye” value [1] was 64%, the decomposition point [3] was “about 220 °C” and the Solubility [2] was 1.66 % by weight.

In the case of `CCN1C(=CC=CC2=[N+](CC)c3ccc4ccccc4c3C2(C)CCCCCCC2(C)C(C=CC=C3N(CC)c4ccc5ccccc5c4C3(C)C)=[N+](CC)c3ccc4ccccc4c32)C(C)(C)c2c1ccc1ccccc21.F[P-](F)(F)(F)(F)F.F[P-](F)(F)(F)(F)F` (stereo not shown) [Chemical Formula 8], the “Residual percentage (%) of dye” value [1] is reported as 75% and the Solubility [2] is reported as 2.58 % by weight.

With `CCN1C(=CC=CC2=[N+](CC)c3ccc4ccccc4c3C2(C)CCCCC2(C)C(C=CC=C3N(CC)c4ccc5ccccc5c4C3(C)Cc3ccccc3)=[N+](CC)c3ccc4ccccc4c32)C(C)(Cc2ccccc2)c2c1ccc1ccccc21.F[P-](F)(F)(F)(F)F.F[P-](F)(F)(F)(F)F` (stereo not shown) [Chemical Formula 2] the “Residual percentage (%) of dye” value [1] was 66%, the decomposition point [3] was “about 211 °C” and the Solubility [2] was 2.68 % by weight.

With `C[N+]1=C(C=CNc2ccccc2)C(C)(CCCCC2(C)C(C=CNc3ccccc3)=[N+](C)c3ccc4ccccc4c32)c2c1ccc1ccccc21.[O-][Cl+3]([O-])([O-])[O-].[O-][Cl+3]([O-])([O-])[O-]` (stereo not shown) [Chemical Formula 24] the decomposition point [3] was “about 300 °C”.

With `CCN1C(=CC=CC2=[N+](CC)c3ccc4ccccc4c3C23CCCCC3)C(C)(C)c2c1ccc1ccccc21` [Chemical Formula 66] the “Residual percentage (%) of dye” value [1] was 58%, the “solubility in TFP (in words)” value [2] was “relatively low solubility in TFP” and the Solubility [2] was 0.82 % by weight.

For `CN1C(=CC2=[N+](C)c3ccc4ccccc4c3C2(C)CCCCC2(C)C(C=C3Oc4ccccc4N3C)=[N+](C)c3ccc4ccccc4c32)Oc2ccccc21.[O-][Cl+3]([O-])([O-])[O-].[O-][Cl+3]([O-])([O-])[O-]` (stereo not shown) [Chemical Formula 21], the decomposition point [3] was “about 285 °C”.

With `CCN1C(=CC=CC2=[N+](CC)c3ccc4ccccc4c3C2(C)CCCCC2(C)C(C=CC=C3N(CC)c4ccc5ccccc5c4C34CCCCC4)=[N+](CC)c3ccc4ccccc4c32)C2(CCCCC2)c2c1ccc1ccccc21.F[P-](F)(F)(F)(F)F.F[P-](F)(F)(F)(F)F` (stereo not shown) [Chemical Formula 3] the “Residual percentage (%) of dye” value [1] was 64%, the decomposition point [3] was “about 235 °C” and the Solubility [2] was 2.47 % by weight.

In the case of `CCN1C(=CC=CC2=[N+](CCCCCC[N+]3=C(C=CC=C4N(CC)c5ccc6ccccc6c5C4(C)C)C(C)(C)c4c3ccc3ccccc43)c3ccc4ccccc4c3C2(C)C)C(C)(C)c2c1ccc1ccccc21` [Chemical Formula 67], the “Residual percentage (%) of dye” value [1] is reported as 60%, the “solubility in TFP (in words)” value [2] is reported as “relatively low solubility in TFP” and the Solubility [2] is reported as 0.44 % by weight.
